Data taken from PubChem BioAssay (NCI).
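96-well plates; 48 h exposure; 5 concentrations. Endpoints by linear interpolation between flanking doses. Not reached: highest tested concentration assigned. Abbreviation: GI50, concentration required for 50% inhibition of growth. TGI is the concentration that stops growth completely.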 Where a SMILES comes first, the peptide text is derived from it. [ ]: non-standard residue; d: D form. The star is where a group is joined. ξ: configuration not given here. NMeN = CN[C@@H](CC(N)=O)C(=O)O; NMeV = CN[C@H](C(=O)O)C(C)C; ξNMeV = CNC(C(=O)O)C(C)C; Boc = CC(C)(C)OC(=O)*; ξNMeA = CNC(C)C(=O)O

Legend:
Test in all cases: NCI tumour cell line growth inhibition, 48 h
[1] = system: M19-MEL melanoma
[2] = system: LXFL 529 NSCLC
[3] = system: DLD-1 colon
[4] = system: SNB-78 CNS
[5] = system: RXF-631 renal
[6] = system: XF 498 CNS
[7] = system: NCI/ADR-RES ovarian
[8] = system: T-47D breast
[9] = system: MDA-N

Structure (SMILES) | TGI [1] | TGI [2] | TGI [3] | TGI [4] | TGI [5] | TGI [6] | TGI [7] | TGI [8] | TGI [9] | GI50 [1]
Nc1ncn(C2C=C(CO)C(O)C2O)c(=O)n1 (configuration not stated) | > 100 µM | > 100 µM | > 100 µM | > 100 µM | > 100 µM | – | – | – | – | –
CCCCCCCCCCC(O)C1CCC(C(O)CCC(O)C2CCC(CCCCCCC[C@H](O)CC3=C[C@@H](C)OC3=O)O2)O1 (some centres not stated) | > 100 µM | > 100 µM | > 100 µM | > 100 µM | > 100 µM | > 100 µM | 8.23 µM | – | – | –
COC(=O)C(C)N(C)C(=O)[C@H](CC(N)=O)N(C)C(=O)[C@@H]1CCCN1C(=O)[C@H](C(C)C)N(C)C(=O)C(C(C)C)N(C)C(=O)[C@@H](NC(=O)OC(C)(C)C)C(C)C (some centres not stated) (Boc-V[ξNMeV][NMeV]P[NMeN][ξNMeA]-OMe) | > 100 µM | > 100 µM | > 100 µM | > 100 µM | – | > 100 µM | > 50 µM | > 50 µM | > 50 µM | –
Cc1ccc(NC(=O)CC(=O)n2nc(-c3ccccc3)c(N=Nc3ccccc3Cl)c2-c2ccccc2)cc1 | > 100 µM | > 100 µM | – | – | > 100 µM | > 100 µM | – | – | – | > 100 µM
CCc1nc(N)nc(C(=O)NCCNC(=O)c2nc(N)nc(CC)c2C)c1C | > 100 µM | > 100 µM | > 100 µM | > 100 µM | > 100 µM | > 100 µM | – | – | – | –
CC(=O)/C(=C\C1=CCCO1)C(=O)Nc1ccccc1C | > 100 µM | > 100 µM | > 100 µM | > 100 µM | > 100 µM | > 100 µM | – | – | – | –
O=C1NC2CCC(C2)C1c1ccccc1 (configuration not stated) | > 100 µM | > 100 µM | > 100 µM | > 100 µM | > 100 µM | – | – | – | – | –
COC(=O)C12C3C4C5C3(C#N)C1C5(C(=O)OC)C42C(=O)N(C(C)C)C(C)C (configuration not stated) | > 100 µM | > 100 µM | > 70.6 µM | > 100 µM | > 100 µM | > 100 µM | – | – | – | –
CC1(C)CCC[C@@]2(C)C1CC[C@H]1CC(O)C3(C)CCC12C3 (some centres not stated) | 38.2 µM | 31.2 µM | 30.9 µM | 37 µM | 33.5 µM | 31.7 µM | – | – | – | –
CCCCc1ccc(-n2c3nc(=O)n(C)c(=O)c-3nc3ccccc32)cc1 | 2.87 µM | 30.4 µM | – | 39 µM | 35.3 µM | 32.4 µM | – | – | – | –
COc1ccc(C(=O)OC2C=COC(C)C2OC(=O)c2ccc(OC)cc2)cc1 (configuration not stated) | > 100 µM | 28.1 µM | > 52.8 µM | > 100 µM | 81.3 µM | > 61.8 µM | – | – | – | –
Nc1nc(=S)[nH]c(C(=O)Nc2ccc(Cl)c(Cl)c2)c1-c1ccc(Cl)cc1 | > 100 µM | > 100 µM | > 100 µM | – | > 100 µM | > 100 µM | – | – | – | –
COc1ccc2cc3[n+](cc2c1OC)CCc1cc(O)c(O)cc1-3 | > 100 µM | > 100 µM | > 100 µM | > 100 µM | > 100 µM | > 100 µM | – | – | – | –
O=c1[nH]c2c3ccccc3ccc2c2cc3c(cc12)OCO3 | > 100 µM | > 100 µM | > 100 µM | > 100 µM | > 100 µM | > 100 µM | – | – | – | –
CCn1c(O)c(C=N)c(=O)n(CC)c1=O | > 100 µM | > 100 µM | > 100 µM | > 100 µM | > 100 µM | – | – | – | – | –
C[C@]12CC[C@H](OCCC#N)CC1=CC[C@@H]1C2CC[C@]2(C)/C(=N/OCCC#N)CCC12 (some centres not stated) | > 100 µM | > 100 µM | > 100 µM | > 90 µM | – | 48.9 µM | – | – | – | –
COC(=O)C(=O)C(C#N)c1ccc(CC#N)cc1 (configuration not stated) | > 100 µM | > 100 µM | > 100 µM | > 100 µM | – | > 100 µM | – | – | – | –
Cc1nc2cc(N)c(F)cc2[nH]1 | > 100 µM | > 100 µM | > 100 µM | > 100 µM | – | > 100 µM | – | – | – | –
O=c1ccnc2c1ccc1[nH]cccc12 | > 100 µM | > 100 µM | > 100 µM | > 100 µM | > 100 µM | – | – | – | – | –
NC(=S)N/N=C(\C(=O)Nc1cccc([N+](=O)[O-])c1)c1nc2ccc([N+](=O)[O-])cc2[nH]c1=O | > 100 µM | > 100 µM | > 100 µM | – | > 100 µM | > 100 µM | – | – | – | –
Cc1cccc(C)c1NC(=O)CCc1nnc2s/c(=C\c3ccc(Cl)cc3)c(=O)n12 | > 100 µM | > 100 µM | > 100 µM | > 100 µM | – | > 100 µM | – | – | – | –
